This note sets out measurements from US7189720B2 (H. Lundbeck A/S, priority 1999, dated 2007).

The first experiment deals with T1, human Y5 receptor (Homo sapiens, UniProt Q15761).
T1 construct: expressed in transfected cells; host or cells: mouse fibroblast LM(tk-) cells, e.g. L-hY5-7 (ATCC CRL-11995)
T1 sequence (Q15761 1-445): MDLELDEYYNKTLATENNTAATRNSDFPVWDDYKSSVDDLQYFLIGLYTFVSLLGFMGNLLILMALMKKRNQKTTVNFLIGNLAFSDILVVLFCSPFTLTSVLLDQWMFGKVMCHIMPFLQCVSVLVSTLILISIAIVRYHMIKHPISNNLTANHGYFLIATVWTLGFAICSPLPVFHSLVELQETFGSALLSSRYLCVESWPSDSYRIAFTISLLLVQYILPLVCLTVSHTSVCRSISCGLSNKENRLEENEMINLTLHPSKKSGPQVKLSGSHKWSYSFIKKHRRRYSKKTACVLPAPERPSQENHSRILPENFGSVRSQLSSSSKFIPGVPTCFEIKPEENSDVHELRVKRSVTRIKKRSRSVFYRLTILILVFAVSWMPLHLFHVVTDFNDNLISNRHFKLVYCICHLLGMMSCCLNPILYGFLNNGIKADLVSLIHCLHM
Nature of the experiment: Radioligand binding to membranes, cloned human Y5 receptor. As to conditions: Table 1; read-out: Ki (nM) hNPY-5.
As usually defined, the Ki is the equilibrium dissociation constant of an inhibitor or competing ligand from its target. With `COCCNc1nc(NCC2CCC(CNS(=O)(=O)c3cccc4ccccc34)CC2)nc(NC(C)C)n1` (stereo not shown) [Example 12, N1-(4-[(4-(isopropylamino)-6-[(2-methoxyethyl)amino]-1,3,5-triazin-2-ylamino)methyl]cyclohexylmethyl)-1-naphthalenesulfonamide], the Ki turned out to be 18 nM.
On the same count and under the same terms, the same measure for `CCCCCNc1nc(NCC2CCC(CNS(=O)(=O)c3cccc4ccccc34)CC2)nc(NC(C)C)n1` (stereo not shown) [Example 9, N1-[4-([4-(isopropylamino)-6-(pentylamino)-1,3,5-triazin-2-yl]aminomethyl)cyclohexyl]methyl-1-naphthalenesulfonamide]: 6 nM.
On the same count and under the same terms, the same measure for `CC(C)Nc1nc(NCCC#N)nc(NCC2CCC(CNS(=O)(=O)c3cccc4ccccc34)CC2)n1` (stereo not shown) [Example 10, N1-[4-([4-[(2-cyanoethyl)amino]-6-(isopropylamino)-1,3,5-triazin-2-yl]aminomethyl)cyclohexyl]methyl-1-naphthalenesulfonamide]: 81 nM; for `CC(C)Nc1nc(NCC2CCC(CNS(=O)(=O)c3cccc4ccccc34)CC2)nc(N2CCN(C(C)C)CC2)n1` (stereo not shown) [Example 28, N1-{[4-({[4-(isopropylamino)-6-(4-isopropylpiperazino)-1,3,5-triazin-2-yl]amino}methyl)cyclohexyl]methyl}-1-naphthalenesulfonamide]: 22 nM.
Same read-out and setting: the same measure for `COCCCNc1nc(NCC2CCC(CNS(=O)(=O)c3cccc4ccccc34)CC2)nc(NC(C)C)n1` (stereo not shown) [Example 13, N1-(4-[(4-(isopropylamino)-6-[(3-methoxypropyl)amino]-1,3,5-triazin-2-ylamino)methyl]cyclohexylmethyl)-1-naphthalenesulfonamide]: 22 nM.

The same experiment, now with this note: Table 2; read-out: Ki (nM) hNPY-5.
Regarding `CCNc1nc(NCC)nc(NCC2CCC(CNS(=O)(=O)c3ccc(F)cc3)CC2)n1` (stereo not shown) [Example 30, N1-[4-([4,6-di(ethylamino)-1,3,5-triazin-2-yl]aminomethyl)cyclohexyl]methyl-4-fluoro-1-benzenesulfonamide], the Ki was 40 nM.
The same measure, in the same setting: the result for `CCNc1nc(NCC)nc(NCC2CCC(CNS(=O)(=O)c3ccc(C)cc3)CC2)n1` (stereo not shown) [Example 39, N1-[4-([4,6-di(ethylamino)-1,3,5-triazin-2-yl]aminomethyl)cyclohexyl]methyl-4-methyl-1-benzenesulfonamide] reads 28 nM.
On the same count and under the same terms, the same measure for `CCNc1nc(NCC)nc(NCC2CCC(CNS(=O)(=O)c3ccc(C(C)(C)C)cc3)CC2)n1` (stereo not shown) [Example 29, N1-[4-([4,6-di(ethylamino)-1,3,5-triazin-2-yl]aminomethyl)cyclohexyl]methyl-4-(tert-butyl)-1-benzenesulfonamide]: 50 nM; for `CCNc1nc(NCC)nc(NCC2CCC(CNS(=O)(=O)c3cn(C)cn3)CC2)n1` (stereo not shown) [Example 38, N4-[4-([4,6-di(ethylamino)-1,3,5-triazin-2-yl]aminomethyl)cyclohexyl]methyl-1-methyl-1H-4-imidazolesulfonamide]: 313 nM.
With `CCNc1nc(NCC)nc(NCC2CCC(CNS(=O)(=O)c3ccccc3F)CC2)n1` (stereo not shown) [Example 32, N1-[4-([4,6-di(ethylamino)-1,3,5-triazin-2-yl]aminomethyl)cyclohexyl]methyl-2-fluoro-1-benzenesulfonamide], the Ki turned out to be 35 nM.
As for `CCNc1nc(NCC)nc(NCC2CCC(CNS(C)(=O)=O)CC2)n1` (stereo not shown) [Example 42, N-[4-([4,6-di(ethylamino)-1,3,5-triazin-2-yl]aminomethyl)cyclohexyl]methylmethanesulfonamide], the inhibition constant (Ki) was 3070 nM.

The same experiment, now with this note: Table 3; read-out: Ki (nM) hNPY-5.
Regarding `CN(C)S(=O)(=O)NCC1CCC(CNc2nc(N3CCOCC3)nc(N3CCOCC3)n2)CC1` (stereo not shown) [Example 50, N′-[(4-[(4,6-dimorpholino-1,3,5-triazin-2-yl)amino]methylcyclohexyl)methyl]-N,N-dimethylsulfamide], the inhibition constant Ki worked out at 3510 nM.
Still for that read-out and setting: the same measure for `CC(C)Nc1nc(NCC2CCC(CNS(=O)(=O)N3CCOCC3)CC2)nc(N2CCOCC2)n1` (stereo not shown) [Example 44, N4-[4-([4-(isopropylamino)-6-morpholino-1,3,5-triazin-2-yl]aminomethyl)cyclohexyl]methyl-4-morpholinesulfonamide]: 295 nM; for `CC(C)Nc1nc(NCC2CCC(CNS(=O)(=O)N(C)C)CC2)nc(NC2CC2)n1` (stereo not shown) [Example 48, N′-[4-([4-(cyclopropylamino)-6-(isopropylamino)-1,3,5-triazin-2-yl]aminomethyl)cyclohexyl]methyl-N,N-dimethylsulfamide]: 192 nM.

Staying with this experiment, now noted: Table 5; read-out: Ki, nM hNPY-5.
On to `O=S(=O)(N[C@H]1CC[C@H](CNc2nc(-c3ccccn3)cs2)CC1)c1ccccc1F` [Example 84, trans-2-(4-(2-Fluorophenyl)sulfonylamino)cyclohexylmethyl-amino-4-(2-pyridyl)thiazole dihydrogen chloride], for which the Ki worked out at 8.4 nM.
On the same count and under the same terms, the result for `O=S(=O)(NCCCCCNc1nc(-c2ccccn2)cs1)c1ccc(F)c(F)c1` [Example 64, 2-(5-(3,4-Difluorophenyl)sulfonylamino)pentylamino-4-(2-pyridyl)thiazole hydrogen chloride] reads 42 nM; that for `COc1ccc(S(=O)(=O)NCCCCCNc2nc(-c3ccccn3)cs2)cc1` [Example 62, 2-(5-(4-Methoxyphenyl)sulfonylamino)pentylamino-4-(2-pyridyl)thiazole hydrogen chloride], 33 nM; that for `Cc1nc(-c2csc(NC[C@H]3CC[C@H](CNS(=O)(=O)N4CCOCC4)CC3)n2)c(C)s1` [Example 100, trans-N4-[4-([4-(2,5-Dimethyl-1,3-thiazol-4-yl)-1,3-thiazol-2-yl]aminomethyl)cyclohexyl]methyl-4-morpholinesulfonamide], 3.3 nM.
The same measure, in the same setting: the result for `Cc1nc(-c2csc(N[C@H]3CC[C@H](CNS(=O)(=O)c4ccc(F)cc4)CC3)n2)c(C)s1` [Example 97] reads 6.6 nM; that for `Cc1nc(-c2csc(NC[C@H]3CC[C@H](N(C=O)C(C)C)CC3)n2)c(C)s1` [Example 102, trans-N-[4-([4-(2,5-Dimethyl-1,3-thiazol-4-yl)-1,3-thiazol-2-yl]aminomethyl)cyclohexyl]-N-isopropylformamide], 72 nM.

The same experiment, now with this note: Table 6; read-out: Ki, nM hNPY-5.
On to `O=S(=O)(Cc1ccccc1)NCCCCCNc1nc2c(s1)CCSc1ccccc1-2` [Example 133, N-[5-(4,5-dihydrobenzo[2,3]thiepino[4,5-d][1,3]thiazol-2-ylamino)pentyl]phenyl-methanesulfonamide], for which the inhibition constant Ki is 38 nM.
The same measure, in the same setting: the same measure for `Cc1ccc(S(=O)(=O)NC[C@H]2CC[C@H](Nc3nc4c(s3)CCSc3ccccc3-4)CC2)cc1` [Example 156, N1-{[4-(4,5-Dihydrobenzo[2,3]thiepino[4,5-d][1,3]thiazol-2-ylamino)cyclohexyl]methyl}-4-methyl-1-benzenesulfonamide]: 6.6 nM; for `O=S(=O)(Cc1ccccc1)NC[C@H]1CC[C@H](Nc2nc3c(s2)CCSc2ccccc2-3)CC1` [Example 153, N-{[4-(4,5-Dihydrobenzo[2,3]thiepino[4,5-d][1,3]thiazol-2-ylamino)cyclohexyl]methyl}phenyl-methanesulfonamide]: 8.9 nM.
`CS(=O)(=O)NCCCCCCNc1nc2c(s1)CCSc1ccccc1-2` [Example 103, N-[6-(4,5-Dihydrobenzo[2,3]thiepino[4,5-d][1,3]thiazol-2-ylamino)hexyl]methanesulfonamide]: the Ki is 7.4 nM.
Still for that read-out and setting: the result for `CN(C)C(=O)NCCCCCNc1nc2c(s1)CCSc1ccccc1-2` [Example 139, N′-[5-(4,5-Dihydrobenzo[2,3]thiepino[4,5-d][1,3]thiazol-2-ylamino)pentyl]-N,N-dimethylurea] reads 122 nM; that for `O=C(NCCCCNc1nc2c(s1)CCSc1ccccc1-2)c1cccc2ccccc12` [Example 140, N1-[4-(4,5-Dihydrobenzo[2,3]thiepino[4,5-d][1,3]thiazol-2-ylamino)butyl]-1-naphthamide], 123 nM; that for `CCCS(=O)(=O)NCCCCCCNc1nc2c(s1)CCSc1ccccc1-2` [Example 143, N1-[6-(4,5-Dihydrobenzo[2,3]thiepino[4,5-d][1,3]thiazol-2-ylamino)hexyl]-1-propanesulfonamide], 3.6 nM.
Still for that read-out and setting: the same measure for `O=S(=O)(NCCCCCNc1nc2c(s1)CCSc1ccccc1-2)c1c(Cl)cccc1Cl` [Example 131, N1-[5-(4,5-Dihydrobenzo[2,3]thiepino[4,5-d][1,3]thiazol-2-ylamino)pentyl]-2,6-dichloro-1-benzenesulfonamide]: 71 nM.
On the same count and under the same terms, the same measure for `N#Cc1ccccc1S(=O)(=O)NC[C@H]1CC[C@H](Nc2nc3c(s2)CCSc2ccccc2-3)CC1` [Example 154, N1-{[4-(4,5-Dihydrobenzo[2,3]thiepino[4,5-d][1,3]thiazol-2-ylamino)cyclohexyl]methyl}-2-cyano-1-benzenesulfonamide]: 69 nM; for `COc1cccc(Br)c1S(=O)(=O)NCCCCCCNc1nc2c(s1)CCSc1ccccc1-2` [Example 147, N1-[6-(4,5-Dihydrobenzo[2,3]thiepino[4,5-d][1,3]thiazol-2-ylamino)hexyl]-2-bromo-6-methoxy-1-benzenesulfonamide]: 7.9 nM; for `CC(C)N(C=O)[C@H]1CC[C@H](CNc2nc3c(s2)CCSc2ccccc2-3)CC1` [Example 165, trans-N-4-[(4,5-Dihydrobenzo[2,3]thiepino[4,5-d][1,3]thiazol-2-ylamino)methyl]cyclohexyl-N-isopropylformamide]: 4.8 nM.
